# Results as given in patent publication US11109591B2, “Single phase liquids of alkanolamine salts of dicamba” (Taminco BVBA, priority 2017, dated 2021).
# Legend:
# Type in all cases: physicochemical
# [1] = 2 mL samples spotted onto glass plates, left uncovered at ambient conditions for approximately two months; conditions: 2 mL on glass plate, 20°-25° C.
# Protocol: To evaluate the herbicidal compositions under more stringent conditions, we increased their surface area and exposed them to ambient conditions at room temperature, atmospheric pressure, and uncovered over an extended period of time: 2 mL samples of the five liquefied combinations were spotted onto glass plates and left uncovered at ambient conditions (temperatures within a range of 20°-25° C.) for approximately two months.
# [2] = Density of max-load solutions at ambient temperature
# [3] = Storage in closed containers at ambient conditions for several months, visual phase check; conditions: 20-25 C, atmospheric pressure
# From the text: Behaviors inconsistent with a single phase liquid include liquid/liquid separation of layers, or liquid/solid striation, in each case noticeable as such to the unaided eye. […] The single phase liquid need not necessarily be a true solution in the physical sense but will appear to be a single phase to the unaided eye as described above.
# The amine-herbicide formulations prepared in Examples 1, 2, 3, and 4 were stored in closed containers at ambient conditions (room temperature varying from 20-25 C, atmospheric pressure) for several months.
# [4] = Maximum loading of herbicide amine salt in water (HCl titration of amine, Karl-Fischer water); conditions: glufosinate amine salts in water
# From the text: F is a factor that takes into account the amount of base or acid groups on the amine or acid, respectively.
Structure (SMILES),physical state after open exposure on glass plate [1],density of max-load solution [2] [g/mL],physical state after storage (visual presence of salt solids) [3],Max Load amine [4] [g/L],Max Load g ae/L [4] [g ae/L]
"CN(C)Cc1ccccc1.O=C(O)COc1ccc(Cl)cc1Cl [BDMA/2,4-D]",turned into a crystallized mass,1.25,formed single phase liquids,,
COc1c(Cl)ccc(Cl)c1C(=O)O [MMEA/dicamba],remained liquefied,1.31,formed single phase liquids,,
CP(=O)(O)CCC(N)C(=O)O.N (centres unmarked) [NH3/glufosinate],,,,1340,1339
"CCCCN(CCCC)CCCC.O=C(O)COc1ccc(Cl)cc1Cl [TNBA/2,4-D]",turned into a crystallized mass,1.1,formed single phase liquids,,
